Reference: ChEMBL document CHEMBL1201862, “PubChem BioAssay data set” (2004)
Calls of active or inactive are those of the source.

Experiments:
[1] = biological target: DNA dC->dU-editing enzyme APOBEC-3A (Homo sapiens, UniProt P31941); experiment: Dose Response confirmation of small molecule APOBEC3A DNA Deaminase Inhibitors via a fluorescence-based single-stranded DNA deaminase assay. [Related pubchem assays (depositor defined):AID493011, AID493024]; format: functional
[2] = biological target: DNA dC->dU-editing enzyme APOBEC-3G (Homo sapiens, UniProt Q9HC16); format: functional;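 further: Dose-response counterscreen measuring inhibition of APOBEC3G DNA deaminase activity, run while confirming APOBEC3A inhibitors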
DNA dC->dU-editing enzyme APOBEC-3G, sequence (Q9HC16 whole entry): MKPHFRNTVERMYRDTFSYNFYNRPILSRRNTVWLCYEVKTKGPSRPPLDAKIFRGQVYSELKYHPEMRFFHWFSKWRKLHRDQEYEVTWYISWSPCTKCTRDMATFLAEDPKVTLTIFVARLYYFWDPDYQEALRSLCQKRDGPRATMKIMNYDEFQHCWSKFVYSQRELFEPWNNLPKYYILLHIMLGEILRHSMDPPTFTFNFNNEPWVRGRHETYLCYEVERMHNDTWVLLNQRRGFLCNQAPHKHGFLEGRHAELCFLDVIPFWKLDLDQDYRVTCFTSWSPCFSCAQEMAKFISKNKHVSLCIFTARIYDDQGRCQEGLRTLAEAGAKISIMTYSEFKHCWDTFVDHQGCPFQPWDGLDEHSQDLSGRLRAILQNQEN

[3] = cytotoxicity in HPDE-C7 cells, cell-based, fluorescence, HTS (AID 430); format: functional; conditions: Homo sapiens
HEK293 [4] = experiment: NOD1 signaling inhibitors, primary screen, cell-based, luminescence, uHTS (AID 1578); format: functional; conditions: Homo sapiens
HEK293 [5] = experiment: cells; format: functional, cell-based; conditions: Homo sapiens
HEK293 [6] = experiment: NOD2 signaling inhibitors in MDP-stimulated cells, cell-based, uHTS, luminescence (AID 2001); format: functional; conditions: Homo sapiens
[7] = cytotoxicity in KRAS-transformed pancreatic duct cells, primary screen, cell-based, fluorescence, HTS (AID 431); format: functional; conditions: Homo sapiens;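 further: cell line used: HPDE-C7K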
HEK293 [8] = experiment: cells; format: functional, cell-based; conditions: Homo sapiens; remark: listed apart in the source
[9] = biological target: Nucleotide-binding oligomerization domain-containing protein 2 (Homo sapiens, UniProt Q9HC29); experiment: NOD2 signaling inhibitors, cell-based, luminescence, uHTS, HEK293 (AID 1566); format: functional
HEK293 [10] = experiment: cells; format: functional, cell-based; conditions: Homo sapiens; remark: listed apart in the source
SUMO-activating enzyme = SUMO-activating enzyme (Homo sapiens, UniProt Q9UBT2); experiment: SUMOylation inhibitor hit validation, confirmation, SUMOylation inhibitor project, biochemical, AlphaScreen (AID 2018); format: functional
Estrogen receptor = biological target: T1, Estrogen receptor (Homo sapiens, UniProt P03372);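 further: potency for inhibiting coactivator peptide recruitment to the receptor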
T1 sequence (P03372 whole entry): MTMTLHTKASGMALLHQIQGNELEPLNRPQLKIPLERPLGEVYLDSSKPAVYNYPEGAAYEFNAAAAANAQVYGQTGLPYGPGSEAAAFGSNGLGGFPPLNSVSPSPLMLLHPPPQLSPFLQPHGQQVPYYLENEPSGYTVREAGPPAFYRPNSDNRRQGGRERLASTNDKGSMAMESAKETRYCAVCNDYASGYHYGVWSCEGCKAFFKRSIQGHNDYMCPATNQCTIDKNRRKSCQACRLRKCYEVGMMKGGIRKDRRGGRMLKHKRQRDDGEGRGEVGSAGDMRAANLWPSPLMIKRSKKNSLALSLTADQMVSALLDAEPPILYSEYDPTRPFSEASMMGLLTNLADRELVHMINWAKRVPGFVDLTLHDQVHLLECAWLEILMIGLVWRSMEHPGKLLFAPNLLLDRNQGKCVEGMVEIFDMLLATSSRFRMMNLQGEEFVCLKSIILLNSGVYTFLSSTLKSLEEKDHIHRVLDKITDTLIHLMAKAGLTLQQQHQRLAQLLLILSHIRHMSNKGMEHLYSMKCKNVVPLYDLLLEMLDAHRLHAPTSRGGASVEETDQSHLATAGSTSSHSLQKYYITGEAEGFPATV

[11] = biological target: T2, Short transient receptor potential channel 4 (Mus musculus, UniProt Q9QUQ5); experiment: mouse TRPC4 channel activators, dose response, cell-based, HEK293 TRPC4/mu-opioid, Fluo-4 calcium (AID 434937); format: functional
T2 sequence (Q9QUQ5 whole entry): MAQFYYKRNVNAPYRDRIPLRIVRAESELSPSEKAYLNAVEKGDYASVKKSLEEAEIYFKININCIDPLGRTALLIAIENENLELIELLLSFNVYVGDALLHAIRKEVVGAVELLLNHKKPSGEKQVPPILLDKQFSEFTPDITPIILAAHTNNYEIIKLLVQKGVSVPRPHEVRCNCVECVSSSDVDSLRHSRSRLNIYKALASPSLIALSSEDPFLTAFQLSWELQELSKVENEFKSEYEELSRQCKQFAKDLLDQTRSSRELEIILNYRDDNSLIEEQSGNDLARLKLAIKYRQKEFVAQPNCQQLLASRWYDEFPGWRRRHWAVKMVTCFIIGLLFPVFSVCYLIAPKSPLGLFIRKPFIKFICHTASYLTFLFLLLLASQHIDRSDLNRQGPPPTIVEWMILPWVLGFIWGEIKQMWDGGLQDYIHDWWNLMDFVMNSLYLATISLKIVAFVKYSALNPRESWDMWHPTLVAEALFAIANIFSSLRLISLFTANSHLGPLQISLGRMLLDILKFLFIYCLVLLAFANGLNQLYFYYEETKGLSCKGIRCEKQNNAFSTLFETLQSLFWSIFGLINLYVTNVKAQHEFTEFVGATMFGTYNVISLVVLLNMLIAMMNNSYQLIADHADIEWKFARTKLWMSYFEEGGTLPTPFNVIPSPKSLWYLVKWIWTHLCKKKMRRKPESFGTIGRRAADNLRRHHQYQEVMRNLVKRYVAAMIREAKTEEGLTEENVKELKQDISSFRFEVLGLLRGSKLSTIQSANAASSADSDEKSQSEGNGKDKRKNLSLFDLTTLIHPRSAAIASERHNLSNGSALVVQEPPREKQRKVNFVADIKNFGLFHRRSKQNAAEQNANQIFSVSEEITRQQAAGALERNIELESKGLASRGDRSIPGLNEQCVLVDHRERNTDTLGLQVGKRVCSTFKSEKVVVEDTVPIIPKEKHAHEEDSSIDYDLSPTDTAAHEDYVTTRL

[12] = biological target: Peroxisome proliferator-activated receptor gamma/Nuclear receptor coactivator 1 (Homo sapiens, UniProt P37231); experiment: (§1) TR-FRET dose response biochemical High Throughput Screening assay for agonists of the steroid receptor coactivator 1 (SRC-1) recruitment by the peroxisome proliferator-activated receptor gamma (PPAR gamma): non-selective agonists. [Related pubchem assays (depositor defined):AID1300, AID1808, AID504735, AID631]; format: protein assay
Peroxisome proliferator-activated receptor gamma/Nuclear receptor coactivator 1, sequence (P37231 whole entry): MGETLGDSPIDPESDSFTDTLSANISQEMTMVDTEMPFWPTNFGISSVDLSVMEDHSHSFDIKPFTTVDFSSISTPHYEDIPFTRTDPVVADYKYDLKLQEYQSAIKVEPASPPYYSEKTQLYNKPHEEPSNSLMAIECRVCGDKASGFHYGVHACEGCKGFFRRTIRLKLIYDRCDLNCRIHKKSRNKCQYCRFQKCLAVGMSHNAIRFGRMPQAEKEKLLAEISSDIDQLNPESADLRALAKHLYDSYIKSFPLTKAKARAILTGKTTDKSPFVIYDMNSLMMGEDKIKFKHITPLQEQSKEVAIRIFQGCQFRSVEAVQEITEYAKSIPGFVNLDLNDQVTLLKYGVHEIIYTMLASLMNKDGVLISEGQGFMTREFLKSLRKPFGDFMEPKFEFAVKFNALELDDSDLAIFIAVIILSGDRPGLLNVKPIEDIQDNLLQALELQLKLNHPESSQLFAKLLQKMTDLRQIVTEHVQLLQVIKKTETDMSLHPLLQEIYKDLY
Peroxisome proliferator-activated receptor gamma/Nuclear receptor coactivator 1, sequence (Q15788 whole entry, further chain): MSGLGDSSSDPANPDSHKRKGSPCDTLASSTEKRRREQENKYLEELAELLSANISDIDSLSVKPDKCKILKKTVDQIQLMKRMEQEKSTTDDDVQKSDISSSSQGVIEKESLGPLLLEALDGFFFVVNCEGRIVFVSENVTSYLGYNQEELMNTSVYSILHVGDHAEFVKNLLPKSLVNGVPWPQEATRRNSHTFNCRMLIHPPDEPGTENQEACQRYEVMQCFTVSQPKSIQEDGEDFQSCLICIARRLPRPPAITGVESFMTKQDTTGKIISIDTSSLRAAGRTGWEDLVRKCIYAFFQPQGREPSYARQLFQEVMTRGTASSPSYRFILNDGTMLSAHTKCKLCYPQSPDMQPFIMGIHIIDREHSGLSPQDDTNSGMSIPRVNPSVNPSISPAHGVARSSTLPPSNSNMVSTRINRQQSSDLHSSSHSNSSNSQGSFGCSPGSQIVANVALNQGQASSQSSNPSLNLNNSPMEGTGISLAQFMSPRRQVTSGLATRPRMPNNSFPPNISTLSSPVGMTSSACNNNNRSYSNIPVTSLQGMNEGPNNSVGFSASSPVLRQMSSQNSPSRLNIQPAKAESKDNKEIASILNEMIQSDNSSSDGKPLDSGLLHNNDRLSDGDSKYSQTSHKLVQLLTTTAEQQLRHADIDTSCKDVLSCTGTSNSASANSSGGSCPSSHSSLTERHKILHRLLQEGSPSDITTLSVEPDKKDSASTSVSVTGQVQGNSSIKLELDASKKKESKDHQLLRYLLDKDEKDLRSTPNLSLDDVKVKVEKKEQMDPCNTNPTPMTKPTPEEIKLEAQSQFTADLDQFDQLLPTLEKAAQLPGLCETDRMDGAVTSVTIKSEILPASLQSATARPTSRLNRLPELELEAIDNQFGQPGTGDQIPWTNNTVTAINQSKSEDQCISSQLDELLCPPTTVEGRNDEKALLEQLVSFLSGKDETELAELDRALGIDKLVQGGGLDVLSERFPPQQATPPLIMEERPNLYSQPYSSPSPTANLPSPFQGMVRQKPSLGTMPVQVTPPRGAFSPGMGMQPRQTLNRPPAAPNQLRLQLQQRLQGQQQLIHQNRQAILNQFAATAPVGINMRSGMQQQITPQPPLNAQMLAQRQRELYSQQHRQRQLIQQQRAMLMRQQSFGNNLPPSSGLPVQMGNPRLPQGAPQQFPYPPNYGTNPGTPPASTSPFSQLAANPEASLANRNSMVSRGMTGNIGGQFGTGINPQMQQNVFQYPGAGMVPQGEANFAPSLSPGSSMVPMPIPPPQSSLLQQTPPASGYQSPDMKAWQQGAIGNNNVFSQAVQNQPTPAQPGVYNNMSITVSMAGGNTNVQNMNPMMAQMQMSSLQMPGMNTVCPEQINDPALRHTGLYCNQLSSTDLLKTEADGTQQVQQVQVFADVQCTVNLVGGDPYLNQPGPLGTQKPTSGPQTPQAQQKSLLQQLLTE

[13] = biological target: Peroxisome proliferator-activated receptor gamma/Nuclear receptor coactivator 3 (Homo sapiens, UniProt P37231); experiment: as §1, with “3 (SRC-3)” for “1 (SRC-1)”, “assays: 1301 (Confirmation screen.), 1048 (Primary screen.)]” for “assays (depositor defined):AID1300, AID1808, AID504735, AID631]”; format: functional
[14] = biological target: Peroxisome proliferator-activated receptor gamma/Nuclear receptor coactivator 2 (Homo sapiens, UniProt P37231); experiment: TR-FRET dose response biochemical High Throughput Screening assay for agonists of the steroid receptor coactivator 2 (SRC-2) recruitment by the peroxisome proliferator-activated receptor gamma (PPAR gamma): non-selective agonists. [Related pubchem assays: 1297, 1032 ]; format: functional
Peroxisome proliferator-activated receptor gamma/Nuclear receptor coactivator 2, sequence (P37231 whole entry): as the sequence (P37231 whole entry) above
Peroxisome proliferator-activated receptor gamma/Nuclear receptor coactivator 2, sequence (Q15596 whole entry, further chain): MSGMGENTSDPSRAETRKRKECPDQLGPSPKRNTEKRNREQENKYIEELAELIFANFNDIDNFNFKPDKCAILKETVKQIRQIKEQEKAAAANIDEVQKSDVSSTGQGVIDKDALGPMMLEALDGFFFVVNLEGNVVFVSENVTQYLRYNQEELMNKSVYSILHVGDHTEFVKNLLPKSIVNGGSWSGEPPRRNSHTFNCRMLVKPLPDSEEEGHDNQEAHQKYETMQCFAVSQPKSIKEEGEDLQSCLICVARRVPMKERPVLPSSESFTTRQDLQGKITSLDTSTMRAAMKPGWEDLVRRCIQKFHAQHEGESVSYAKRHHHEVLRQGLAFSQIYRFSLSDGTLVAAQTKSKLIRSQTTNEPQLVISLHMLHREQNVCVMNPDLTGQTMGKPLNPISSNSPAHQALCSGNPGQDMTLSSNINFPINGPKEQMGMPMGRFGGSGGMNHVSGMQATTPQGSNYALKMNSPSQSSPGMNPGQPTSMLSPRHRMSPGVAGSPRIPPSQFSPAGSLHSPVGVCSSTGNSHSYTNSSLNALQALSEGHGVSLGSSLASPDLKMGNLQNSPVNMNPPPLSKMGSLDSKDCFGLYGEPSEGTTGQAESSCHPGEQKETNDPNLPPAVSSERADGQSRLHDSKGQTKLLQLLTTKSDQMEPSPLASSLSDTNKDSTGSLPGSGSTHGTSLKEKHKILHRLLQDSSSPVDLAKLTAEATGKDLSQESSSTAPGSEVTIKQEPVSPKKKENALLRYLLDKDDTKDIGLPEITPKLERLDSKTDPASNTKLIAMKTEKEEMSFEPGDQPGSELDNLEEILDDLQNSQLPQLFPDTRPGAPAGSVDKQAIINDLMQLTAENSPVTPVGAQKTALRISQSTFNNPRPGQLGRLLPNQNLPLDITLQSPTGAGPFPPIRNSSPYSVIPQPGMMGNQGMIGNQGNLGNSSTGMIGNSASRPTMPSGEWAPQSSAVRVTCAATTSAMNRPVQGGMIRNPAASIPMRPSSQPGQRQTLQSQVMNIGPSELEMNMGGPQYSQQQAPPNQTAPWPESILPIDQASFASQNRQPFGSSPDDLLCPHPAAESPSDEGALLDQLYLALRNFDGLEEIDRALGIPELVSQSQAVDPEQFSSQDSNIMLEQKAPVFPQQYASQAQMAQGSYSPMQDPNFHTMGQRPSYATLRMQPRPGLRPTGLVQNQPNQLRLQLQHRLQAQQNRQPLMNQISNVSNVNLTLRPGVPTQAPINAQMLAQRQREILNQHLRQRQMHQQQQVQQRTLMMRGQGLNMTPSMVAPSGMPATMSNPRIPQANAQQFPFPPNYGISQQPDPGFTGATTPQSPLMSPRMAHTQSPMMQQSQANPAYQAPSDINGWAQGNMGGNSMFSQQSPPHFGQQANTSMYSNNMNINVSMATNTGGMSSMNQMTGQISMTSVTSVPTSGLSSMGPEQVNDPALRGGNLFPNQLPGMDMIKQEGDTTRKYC

DNA dC->dU-editing enzyme APOBEC-3A, sequence (P31941 whole entry): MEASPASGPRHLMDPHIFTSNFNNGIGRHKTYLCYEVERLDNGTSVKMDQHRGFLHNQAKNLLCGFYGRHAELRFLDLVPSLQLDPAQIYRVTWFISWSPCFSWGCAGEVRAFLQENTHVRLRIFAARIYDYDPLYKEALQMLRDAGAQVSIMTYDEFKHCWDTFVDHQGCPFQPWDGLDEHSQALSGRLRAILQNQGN

With `C[N+]1(CCCCCCC(=O)C=NO)CCCCCC1` the IC50 [1] was 4.03 µM (active) and the IC50 [2] was 3.9 µM (active).

In the case of `O=C(Nc1ccc2nn(-c3ccccc3)nc2c1)c1ccc2c(c1)OCCO2`, the EC50 [3] is reported as > 20 µM (not active), the EC50 (HEK293 [4]) is reported as > 20 µM (inactive) and the IC50 (HEK293 [5]) is reported as 5.31 µM (active). For the same compound, the IC50 (HEK293 [6]) was 8.39 µM (active), the EC50 [7] was > 20 µM (not active) and the IC50 (HEK293 [8]) was > 20 µM (inactive). The EC50 [9] was > 20 µM (inactive) and the IC50 (HEK293 [10]) was > 20 µM (inactive).

In the case of `CCOc1cccc2cc(-c3nnc(NCc4ccco4)s3)c(=O)oc12`, the IC50 (SUMO-activating enzyme) is reported as 45.7 µM (active) and the IC50 (Estrogen receptor) is reported as 26.8 µM (active).

With `COc1ccc2c(c1O)C13CCN(C)C(C2)C1CCC(=O)C3` (stereo not given) the EC50 [11] was 0.168 µM (active).

For `CCn1c2c(c3cc(Br)ccc31)CCC/C2=N\O`, the EC50 [12] was > 79.4 µM (inactive), the EC50 [13] was > 79.4 µM (not active) and the EC50 [3] was 10.8 µM (active). For the same compound, the EC50 [14] was 25.7 µM (not active) and the EC50 [7] was 10.8 µM (active).

For `CC1(C)Oc2ccc3ccc(=O)oc3c2C(/C=N/CCO)=C1O`, the IC50 [1] was 2.47 µM (active) and the IC50 [2] was 6.83 µM (active).
